Test results: patent publication US20220331303A1, “USE OF AN OREXIN 2 RECEPTOR AGONIST FOR THE TREATMENT OF EXCESSIVE SLEEPINESS” (Takeda Pharmaceutical Company Limited, priority 2019, published 2022)

Experiments:
Assay type in all cases: in vivo, human
[1] = test system: subjects with obstructive sleep apnea; experiment: KSS in subjects with OSA experiencing EDS despite CPAP
Method: (§1) On Day 1 of Treatment Period 1, all eligible subjects were randomized and received the first dose of study drug. Compound A or placebo was administered as a single 9-hour IV infusion commencing at approximately 08:00. On each dosing day (Study Days 1, 3, and 5), 40-minute MWT sessions were performed at 2, 4, 6, and 8 hours after the start of the infusion. There was a minimum 24-hour washout interval between the end of the infusion and the commencement of treatment in subsequent treatment periods to allow for complete elimination of the preceding treatment effect. The KSS and PVT were collected per the Schedule of Study Procedures. Blood samples for determination of Compound A plasma concentrations were collected predose and at specified time points postdose, Safety assessments were recorded. During the study, AEs were recorded, clinical laboratory tests, vital signs, and safety ECGs were obtained. Study Days 2, 4, and 6 were washout days. Subjects were discharged from the unit following completion of study exit procedures in the afternoon of Study Day 6 (Day 2 of Treatment Period 3). Subjects were contacted by telephone approximately 7 days (±2 days) following unit discharge for a safety check.

[2] = test system: subjects with obstructive sleep apnea; experiment: Safety/tolerability of single dose in subjects with OSA; conditions: single doses 44 mg and 112 mg, infusion over 9 hours, OSA patients
From the text: The purpose of the study was to evaluate the pharmacokinetics (PK), pharmacodynamics (PD), safety and tolerability of a single intravenous (IV) dose of Compound A in adults who have been diagnosed with obstructive sleep apnea (OSA) and who are experiencing excessive daytime sleepiness (EDS) despite adequate use of CPAP. Twenty-five patients were randomized, and 23 patients completed the study. All patients at entry were having EDS despite being adequately controlled by CPAP for their sleep apnea.
as §1, with “The KSS and PVT were collected per the Schedule of Study Procedures.” left out, “Study Days 2, 4, and 6 were washout days. Subjects were discharged from the unit following completion of study exit procedures in the afternoon of Study Day 6 (Day 2 of Treatment Period 3). Subjects were contacted by telephone approximately 7 days (±2 days) following unit discharge for a safety check.” left out

[3] = test system: subjects with obstructive sleep apnea; experiment: MWT in subjects with OSA experiencing EDS despite CPAP; conditions: single 9-hour IV infusion
Method: The treatment periods began on Day 1 of Treatment Period 1 (Study Day 1) with Treatment Periods 2 and 3 commencing on Study Days 3 and 5, respectively. In the morning of Day 1 of Treatment Period 1, eligible subjects were randomized to 1 of the 6 sequence groups as listed in Table 36. After randomization, the subject was dosed in 3 treatment periods according to the order defined by the sequence group to which he/she was randomized. On Day 1 of each treatment period, Compound A or placebo was administered as a single 9-hour IV infusion commencing at approximately 08:00. The infusion was terminated at approximately 17:00. On Day 1 of each treatment period, four 40-minute maintenance of wakefulness test (MWT) sessions was performed at 2, 4, 6, and 8 hours after the start of the infusion. Subjects were required to stay awake in between the MWT sessions.
On Day 1 of Treatment Period 1, all eligible subjects were randomized and received the first dose of study drug. Compound A or placebo was administered as a single 9-hour IV infusion commencing at approximately 08:00. […] Blood samples for determination of Compound A plasma concentrations were collected predose and at specified time points postdose, Safety assessments were recorded. During the study, AEs were recorded, clinical laboratory tests, vital signs, and safety ECGs were obtained. […]

[4] = test system: patients with NT2; experiment: MWT in patients with NT2 (Cohorts C1, C2)
Method: The purpose of the study was to evaluate the safety, tolerability, pharmacokinetics and pharmacodynamics of Compound A after multiple days of IV administration in patients with NT2. NT2 patients were evaluated in Cohort C1 and C2 (Table 30). Compound A or placebo were administered via IV infusion over 9 hours once daily for 7 days. A total of 14 patients with NT2 were treated with Compound A or placebo (5, 4, and 5 subjects in the placebo, Compound A 44 mg, and Compound A 112 mg groups, respectively). In this part, potential efficacy of Compound A was evaluated with MWT, ESS, KSS, night-time PSG (NPSG), and PGI-C as an exploratory PD assessment.
An overview of study schedule and PD testing in NT2 Patients is illustrated in FIG. 9. After screening, patients eligible for these parts had to discontinue any medication for narcolepsy including medications used for EDS or cataplexy. The medications had to be stopped for a minimum of 7 days or at least 5 half-lives of each medication, whichever was longer, before the first day of dosing (Day 1). In all cohorts of these parts, subjects underwent NPSG on Day −2 and baseline MWT sessions 4 times on Day −1 (at around 10:00, 12:00, 14:00, and 16:00). Study drug dosing via IV infusion was started at around 08:00 on Days 1-7. MWT was conducted on Day 1 at around 10:00, 12:00, 14:00, and 16:00. Subjects were allowed to take a nap on the days with no MWT assessment. At night of Day 6, the subjects underwent NPSG once again to evaluate the effect of multiple daytime dosing on night-time sleep structure. On Day 7, the subjects underwent MWT at the same hours as on Day −1. The subjects were discharged from the study site on Day 8.
The MWT is a validated objective measure that evaluates a person's ability to remain awake under soporific conditions for a defined period of time. As there is no biological measure of wakefulness, this was measured indirectly by the inability or delayed tendency to fall asleep. This tendency to fall asleep was measured via EEG-derived sleep latency in MWT.
On Day −1, Day 1 and Day 7, 40-minute session (1 session) of MWTs was performed 4 times (approximately at 10:00, 12:00, 14:00, and 16:00) per day. Sleep latency of each session was recorded. Subjects were required to stay awake during an interval between sessions.

COC(=O)N1CCC[C@H](NS(C)(=O)=O)[C@@H]1CO[C@H]1CC[C@@H](c2ccccc2)CC1 [Compound A, methyl (2R,3S)-3-((methylsulfonyl)amino)-2-(((cis-4-phenylcyclohexyl)oxy)methyl)piperidine-1-carboxylate]
Mean placebo-adjusted decrease in KSS ([1]; Compound A 44 mg): −1.6
Mean placebo-adjusted decrease in KSS ([1]; Compound A 112 mg): −2.4
Safety and tolerability [2]: safe and well tolerated
Mean placebo-adjusted increase in sleep latency in the MWT ([3]; Compound A 44 mg): 22 min
Mean placebo-adjusted increase in sleep latency in the MWT ([3]; Compound A 112 mg): 28 min
Mean change from baseline in average sleep latency in MWT ([4]; Compound A 44 mg, Day 1): 23.88 min
Mean sleep latency in MWT ([4]; Compound A 44 mg, Day 1): 33.03 min
Mean change from baseline in average sleep latency in MWT ([4]; Compound A 44 mg, Day 7): 25.79 min
Mean sleep latency in MWT ([4]; Compound A 44 mg, Day 7): 34.47 min
Maximum sleep latency achieved in MWT ([4]; Compound A 44 mg, at 2 and 8 hours on Day 1 and at 4 and 8 hours on Day 7): 40 min
Mean change from baseline in average sleep latency in MWT ([4]; Compound A 112 mg, Day 1): 31.15 min
Mean sleep latency in MWT ([4]; Compound A 112 mg, Day 1): 38.48 min
Mean change from baseline in average sleep latency in MWT ([4]; Compound A 112 mg, Day 7): 28.28 min
Mean sleep latency in MWT ([4]; Compound A 112 mg, Day 7): 35.60 min
Maximum sleep latency achieved in MWT ([4]; Compound A 112 mg, at 2, 4, and 8 hours both on Day 1 and Day 7): 40 min
